The results in this text go back to patent US8324390B2, “Tetrazole-substituted anthranilamides as pesticides” (Bayer CropScience AG, priority 2008, dated 2012).

Like-named read-outs stand apart in the source and are kept apart here. Some results are limits rather than exact numbers.

Data set [1] relates to green peach aphid (Myzus persicae). Briefly: Myzus test (MYZUPE spray treatment). The format is in vivo. Conditions: Myzus persicae, foliar, read-out: effect in % (aphids killed). An excerpt: Solvent: 78 parts by weight of acetone
(§1) Solvent: 78.0 parts by weight of acetone

The nature of data set [2]: log P determination by HPLC (EEC Directive 79/831 Annex V.A8). The data set is classed as physicochemical. The procedure:
The measurements were carried out using an Agilent 1100 LC system with a 50*4.6 Zorbax Eclipse C18 1.8 μm column (oven temperature 55° C., flow rate 2.0 ml/min).
The following mobile phases were used:
Mobile phase A: acetonitrile+1000 μl of formic acid/l
Mobile phase B: Millipore water+900 μl of formic acid/l

Data set [3] deals with caterpillars of the armyworm (Spodoptera frugiperda). Briefly: Spodoptera frugiperda test (SPODFR spray treatment). The data set is classed as in vivo. Conditions: Spodoptera frugiperda, foliar, read-out: effect in % (caterpillars killed).
Description: as §1

The subject of data set [4] is larvae of the mustard beetle (Phaedon cochleariae). Briefly: Phaedon test (PHAECO spray treatment). As to conditions: Phaedon cochleariae, in Brassica rapa, foliar, read-out: effect in % (beetle larvae killed).
The mark [5] stands for this setting: application rate 100 g/ha, Chinese cabbage leaf discs.
Where [6] appears, read: reversed-phase HPLC, Zorbax Eclipse C18 column, by HPLC according to EEC Directive 79/831 Annex V.A8, read-out: log P.
The mark [7] stands for this setting: application rate 100 g/ha, maize leaf discs.
The mark [8] stands for this setting: reversed-phase HPLC, Zorbax Eclipse C18 column, determined by HPLC according to EEC Directive 79/831 Annex V.A8, read-out: log P.

Take `CNC(=O)c1cc(C#N)cc(C)c1NC(=O)c1cc(C(C)n2nnc(C(F)(F)F)n2)nn1-c1ncccc1Cl` (centres unmarked) [Example 542]: the pest or weed control at 100 g/ha in data set [1] (in Brassica rapa), in data set [3] (in Zea mays) and in data set [4] was no less than 80% in each case. In data set [2] (log P), this compound showed a chromatographic logP of 2.86.
With `CCNC(=O)c1cc(Cl)cc(C)c1NC(=O)c1cc(Cn2nnc(C(F)(F)F)n2)nn1-c1ncccc1Br` [Example 346], the pest or weed control at 100 g/ha in data set [1] (setting [5]), in data set [3] (setting [7]) and in data set [4] was no less than 80% in each case. The chromatographic logP in data set [2] (setting [6]) was 3.23.
As to `Cc1cc(C#N)cc(C(N)=O)c1NC(=O)c1cc(Cn2nnc(C(F)(C(F)(F)F)C(F)(F)F)n2)nn1-c1ncccc1Cl` [Example 372], the pest or weed control at 100 g/ha in data set [1] (in Brassica rapa), in data set [3] (in Zea mays) and in data set [4] was no less than 80% each time. In addition, the chromatographic logP in data set [2] (log P) came to 3.13.
On to `Cc1cc(F)cc(C(N)=O)c1NC(=O)c1cc(Cn2nnc(C(F)(F)F)n2)nn1-c1ncccc1Cl` [Example 45], for which the pest or weed control at 100 g/ha in data set [1] (in Brassica rapa), in data set [3] (in Zea mays) and in data set [4] was no less than 80% each time. Further, in data set [2] (log P), the chromatographic logP is 2.46.
For the compound `Cc1cc(Br)cc(C(=O)NC2CC2)c1NC(=O)c1cc(Cn2nnc(C(F)(F)F)n2)nn1-c1ncccc1Cl` [Example 26], the pest or weed control at 100 g/ha in data set [1] (in Brassica rapa), in data set [3] (in Zea mays) and in data set [4] was no less than 80% in each case. This compound had a chromatographic logP in data set [2] (log P) of 3.3.
For the compound `CNC(=O)c1cc(C#N)cc(C)c1NC(=O)c1cc(Cn2nnc(C(F)(F)F)n2)nn1-c1ccccc1Cl` [Example 310], the pest or weed control at 100 g/ha in data set [1] (setting [5]), in data set [3] (setting [7]) and in data set [4] was no less than 80% throughout. The chromatographic logP in data set [2] (setting [6]) was 3.09.
Consider `Cc1cc(Cl)cc(C(N)=O)c1NC(=O)c1cc(Cn2nnc(C(F)(C(F)(F)F)C(F)(F)F)n2)nn1-c1ncccc1Cl` [Example 360], for which the pest or weed control at 100 g/ha in data set [1] (in Brassica rapa), in data set [3] (in Zea mays) and in data set [4] was no less than 80% throughout. In addition, in data set [2] (log P), the chromatographic logP was found to be 3.46.
For the compound `Cc1cc(Cl)cc(C(=O)NC(C)(C)C)c1NC(=O)c1cc(Cn2nnnc2C(F)(F)F)nn1-c1ncccc1Br` [Example 484], the pest or weed control at 100 g/ha in data set [1] (setting [5]), in data set [3] (setting [7]) and in data set [4] was no less than 80% in each case. Moreover, the chromatographic logP in data set [2] (setting [8]) turned out to be 3.52.
Turning to `Cc1cc(Br)cc(C(=O)NCC#N)c1NC(=O)c1cc(Cn2nnc(C(F)(F)F)n2)nn1-c1ncccc1Cl` [Example 52], the pest or weed control at 100 g/ha in data set [1] (in Brassica rapa), in data set [3] (in Zea mays) and in data set [4] was no less than 80% each time. Also, the chromatographic logP in data set [2] (log P) was found to be 3.02.
On to `Cc1cc(Cl)cc(C(=O)NC2CC2)c1NC(=O)c1cc(Cn2nnnc2C(F)(F)C(F)(F)F)nn1-c1ncccc1Br` [Example 515], for which the pest or weed control at 100 g/ha in data set [1] (setting [5]), in data set [3] (setting [7]) and in data set [4] was no less than 80% each time. Further, the chromatographic logP in data set [2] (setting [8]) was 3.29.
As for `Cc1cc(C#N)cc(C(=O)NC2CC2)c1NC(=O)c1cc(Cn2nnnc2C(F)(F)F)nn1-c1ccccc1Cl` [Example 525], the pest or weed control at 100 g/ha in data set [1] (setting [5]), in data set [3] (setting [7]) and in data set [4] was no less than 80% throughout. The chromatographic logP in data set [2] (setting [8]) came out at 2.95.
Regarding `Cc1cc(C#N)cc(C(=O)NC2CC2)c1NC(=O)c1cc(Cn2nnnc2C(F)(F)C(F)(F)F)nn1-c1ncccc1Cl` [Example 445], the pest or weed control at 100 g/ha in data set [1] (in Brassica rapa), in data set [3] (in Zea mays) and in data set [4] was no less than 80% each time. This compound also showed a chromatographic logP in data set [2] (log P) of 2.95.
Take `Cc1cc(C#N)cc(C(=O)NC(C2CC2)C2CC2)c1NC(=O)c1cc(Cn2nnnc2C(F)(F)F)nn1-c1ncccc1Cl` [Example 196]: the pest or weed control at 100 g/ha in data set [1] (in Brassica rapa), in data set [3] (in Zea mays) and in data set [4] was no less than 80% in each case. In data set [2] (log P), the chromatographic logP stood at 3.28.
Turning to `Cc1cc(I)cc(C(=O)NC2CC2)c1NC(=O)c1cc(Cn2nnnc2C(F)(F)F)nn1-c1ncccc1Cl` [Example 174], the pest or weed control at 100 g/ha in data set [1] (in Brassica rapa), in data set [3] (in Zea mays) and in data set [4] was no less than 80% each time. Moreover, the chromatographic logP in data set [2] (log P) came to 3.12.
Regarding `CNC(=O)c1cc(C#N)cc(C)c1NC(=O)c1cc(Cn2nnc(C(F)(F)F)n2)nn1-c1ncccc1F` [Example 405], the pest or weed control at 100 g/ha in data set [1] (setting [5]), in data set [3] (setting [7]) and in data set [4] was no less than 80% throughout. The chromatographic logP in data set [2] (setting [8]) was determined as 2.46.
For `Cc1cc(C#N)cc(C(=O)NC(C)(C)C)c1NC(=O)c1cc(Cn2nnc(C(F)(F)C(F)(F)F)n2)nn1-c1ccccc1Cl` [Example 434], the pest or weed control at 100 g/ha in data set [1] (setting [5]), in data set [3] (setting [7]) and in data set [4] was no less than 80% throughout. The chromatographic logP in data set [2] (setting [8]) was 4.25.
As to `CNC(=O)c1cc(C#N)cc(C)c1NC(=O)c1cc(Cn2nnnc2C(F)(F)C(F)(F)F)nn1-c1ncccc1Cl` [Example 444], the pest or weed control at 100 g/ha in data set [1] (in Brassica rapa), in data set [3] (in Zea mays) and in data set [4] was no less than 80% each time. This compound displayed a chromatographic logP in data set [2] (log P) of 2.73.
For the compound `CCNC(=O)c1cc(Br)cc(C)c1NC(=O)c1cc(Cn2nnnc2C(F)(F)F)nn1-c1ncccc1Br` [Example 505], the pest or weed control at 100 g/ha in data set [1] (setting [5]), in data set [3] (setting [7]) and in data set [4] was no less than 80% throughout. Moreover, the chromatographic logP in data set [2] (setting [8]) stood at 3.02.
On to `COCCNC(=O)c1cc(C#N)cc(C)c1NC(=O)c1cc(Cn2nnc(C(F)(F)F)n2)nn1-c1ccccc1Cl` [Example 435], for which the pest or weed control at 100 g/ha in data set [1] (setting [5]), in data set [3] (setting [7]) and in data set [4] was no less than 80% each time. The chromatographic logP in data set [2] (setting [8]) was determined as 3.18.
For the compound `Cc1cc(C#N)cc(C(=O)NCCC(F)(F)F)c1NC(=O)c1cc(Cn2nnc(C(F)(F)F)n2)nn1-c1ncccc1Cl` [Example 159], the pest or weed control at 100 g/ha in data set [1] (in Brassica rapa), in data set [3] (in Zea mays) and in data set [4] was no less than 80% each time. The chromatographic logP in data set [2] (log P) was determined as 3.22.
`CCNC(=O)c1cc(C#N)cc(C)c1NC(=O)c1cc(Cn2nnnc2C(F)(F)F)nn1-c1ccccc1Cl` [Example 492]: the pest or weed control at 100 g/ha in data set [1] (setting [5]), in data set [3] (setting [7]) and in data set [4] was no less than 80% each time. Also, the chromatographic logP in data set [2] (setting [8]) worked out at 3.01.
For `Cc1cc(I)cc(C(N)=O)c1NC(=O)c1cc(Cn2nnc(C(F)F)n2)nn1-c1ncccc1Cl` [Example 272], the pest or weed control at 100 g/ha in data set [1] (in Brassica rapa), in data set [3] (in Zea mays) and in data set [4] was no less than 80% each time. This compound also gave a chromatographic logP in data set [2] (log P) of 2.53.
Turning to `C=CCNC(=O)c1cc(C#N)cc(C)c1NC(=O)c1cc(Cn2nnc(C(F)(F)F)n2)nn1-c1ncccc1Cl` [Example 320], the pest or weed control at 100 g/ha in data set [1] (in Brassica rapa), in data set [3] (in Zea mays) and in data set [4] was no less than 80% each time. The chromatographic logP in data set [2] (log P) stood at 2.97.
